Test results from US4820721A, “1-aryl-5-(2-oxo-1-pyrrolidinyl)-1,2,3-triazolines as novel anticonvulsants” (priority 1988, dated 1989).

Legend:
[1] = Phase I anticonvulsant activity (MES and scMet tests); assay type: in vivo; conditions: Mus musculus, male albino mice, read-out: Activity, Phase I (active dose)
Experimental: They afford protection in both the scMet and MES seizure models. The 1-p-chlorophenyl-5-(2-oxo-1-pyrrolidinyl)-1,2,3-triazoline is active in the 100 mg/kg dose and the 1-phenyl-5-(2-oxo-1-pyrrolidinyl)-1,2,3-triazoline is active in the 300 mg/kg dose.
(§1) The anticonvulsant activity was evaluated by subjecting male albino mice to the MES test and the scMet test. The maximal electroshock seizure test (MES) was performed according to the method of Swinyard et al (J. Pharmacol. Exp. Ther. 106, 319, 1952), and abolition of the hind limb tonic extensor component of the maximal seizures was defined as protection. In the subcutaneous pentylenetetrazole seizure threshold test (scMet), 85 mg/kg of pentylenetetrazol was administered as a 0.5% solution subcutaneously in the posterior midline, and failure to observe even a threshold seizure (a single episode of clonic spasms of at least 5-s duration) was defined as protection.

in vivo = assay: in vivo; design: species or system mice; conditions: mouse
Experimental: Neurotoxicity was evaluated by the rotorod ataxia test (Dunham et al, J. Am. Pharm. Assoc. Sci. Ed., 46, 208, 1957). The animal was placed on a wooden rod of 2.8-cm diameter rotating at 6 rpm. Normal mice can remain on a rod rotating at this speed indefinitely.

[2] = subcutaneous pentylenetetrazole (Metrazole) seizure threshold (scMet) test; assay type: in vivo; conditions: Mus musculus, sc; Phase II; male albino mice; 85 mg/kg pentylenetetrazol s.c.
Experimental: as §1

[3] = maximal electroshock seizure (MES) test; assay type: in vivo; conditions: Mus musculus; Phase II; male albino mice
Experimental: as §1

SMILES	minimal effective dose [1] [mg/kg]	TD50 (in vivo) [mg/kg]	ED50 [2] [mg/kg]	ED50 [3] [mg/kg]
O=C1CCCN1C1CN=NN1c1ccccc1 (centres unmarked) [1-phenyl-5-(2-oxo-1-pyrrolidinyl)-1,2,3-triazoline]	300			
O=C1CCCN1C1CN=NN1c1ccc(Cl)cc1 (centres unmarked) [1-p-chlorophenyl-5-(2-oxo-1-pyrrolidinyl)-1,2,3-triazoline]	100	249	77.2	116
